How the values were obtained:
Carbonic anhydrase 2 [1] = target: T1, Carbonic anhydrase 2 (Homo sapiens, UniProt P00918); test: Binding affinity to human carbonic anhydrase 2
Carbonic anhydrase 1 = Carbonic anhydrase 1 (Homo sapiens, UniProt P00915); test: Inhibition of human erythrocytes carbonic anhydrase 1 by CO2 hydration assay
Carbonic anhydrase 2 [2] = target: T1, Carbonic anhydrase 2; test: Inhibition of human erythrocytes carbonic anhydrase 2 by CO2 hydration assay

Chain of Carbonic anhydrase 1 (P00915 whole entry): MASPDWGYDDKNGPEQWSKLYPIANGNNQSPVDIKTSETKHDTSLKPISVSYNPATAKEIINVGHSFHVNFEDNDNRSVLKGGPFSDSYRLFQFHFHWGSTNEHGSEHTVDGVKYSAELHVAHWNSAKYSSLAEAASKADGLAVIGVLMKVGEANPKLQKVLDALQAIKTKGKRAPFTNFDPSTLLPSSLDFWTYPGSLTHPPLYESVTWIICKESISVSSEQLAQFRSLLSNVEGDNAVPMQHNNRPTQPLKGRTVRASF

## Cc1ccc(S(=O)(=O)O)cc1
Carbonic anhydrase 2 [1]
  Ki: 460 µM

## Fc1ccccc1CNCc1ccccc1
Carbonic anhydrase 1
  Ki: > 100 µM
Carbonic anhydrase 2 [2]
  Ki: > 100 µM

## Fc1ccccc1/C=N/Cc1ccccc1
Carbonic anhydrase 1
  Ki: > 100 µM
Carbonic anhydrase 2 [2]
  Ki: > 100 µM

## O=C(O)c1cccc(CNCc2ccccc2)c1
Carbonic anhydrase 1
  Ki: > 100 µM
Carbonic anhydrase 2 [2]
  Ki: > 100 µM

## O=C(O)c1cccc(/C=N/Cc2ccccc2)c1
Carbonic anhydrase 1
  Ki: > 100 µM
Carbonic anhydrase 2 [2]
  Ki: > 100 µM

## O=S(=O)(O)c1ccc(/C=N/Cc2ccccc2)o1
Carbonic anhydrase 2 [2]
  Ki: > 100 µM

— ChEMBL document CHEMBL1158472, “Carbonic anhydrase-encoded dynamic constitutional libraries: toward the discovery of isozyme-specific inhibitors” (J Med Chem, 2009)
